Assay results reported in patent publication US20260132160A1, “IRON REPLACEMENT TREATMENTS” (The General Hospital Corporation, priority 2022, published 2026).

What was measured:
[1] = cited from earlier work
[2] = pH-potentiometric titration, Zn2+ complex; format: physicochemical; settings: pH 7.4
Description: (§1) The aqueous solutions thermodynamics of BBG and its corresponding complexes of Fe^3+, Cu^2+, and Zn^2+ were interrogated through pH-potentiometric titration of BBG (L) in the absence and presence of 1 molar equivalent of Fe^3+, Cu^2+, or Zn^2+, FIG. 13A.
(§2) pH-potentiometric measurements were performed using an Orion ROSS Ultra pH electrode and temperature-controlled reaction vessel held at 310 K. A standardized solution of 0.10 M NaOH was used as the titrant. The electrode was calibrated prior to each titration by titrating a standardized HCl(aq) solution at ionic strength 0.10 using NaCl as the inert electrolyte with the standardized NaOH titrant. A working slope and intercept were generated by plotting mV as a function of calculated pH, which enabled direct conversion of electrode readings to [H^+] during sample titrations. pH values recorded during the titrations refers to hydrogen ion concentration. All titration samples were prepared in solutions of 0.10 M NaCl in distilled, deionized water. Ligand solutions were prepared by dissolving a weighed quantity into water and concentration was determined from the effective weight of the ligand and confirmed by the quantity of NaOH required to consume 1 molar equivalent of ligand proton. […]

holo-transferrin = holo-transferrin (Homo sapiens, UniProt P02787); experiment: Fe removal from holo-transferrin by BBG ligand; format: biochemical; settings: 24 h, pH 7.4, 37° C.
Chain of holo-transferrin (P02787 20-698): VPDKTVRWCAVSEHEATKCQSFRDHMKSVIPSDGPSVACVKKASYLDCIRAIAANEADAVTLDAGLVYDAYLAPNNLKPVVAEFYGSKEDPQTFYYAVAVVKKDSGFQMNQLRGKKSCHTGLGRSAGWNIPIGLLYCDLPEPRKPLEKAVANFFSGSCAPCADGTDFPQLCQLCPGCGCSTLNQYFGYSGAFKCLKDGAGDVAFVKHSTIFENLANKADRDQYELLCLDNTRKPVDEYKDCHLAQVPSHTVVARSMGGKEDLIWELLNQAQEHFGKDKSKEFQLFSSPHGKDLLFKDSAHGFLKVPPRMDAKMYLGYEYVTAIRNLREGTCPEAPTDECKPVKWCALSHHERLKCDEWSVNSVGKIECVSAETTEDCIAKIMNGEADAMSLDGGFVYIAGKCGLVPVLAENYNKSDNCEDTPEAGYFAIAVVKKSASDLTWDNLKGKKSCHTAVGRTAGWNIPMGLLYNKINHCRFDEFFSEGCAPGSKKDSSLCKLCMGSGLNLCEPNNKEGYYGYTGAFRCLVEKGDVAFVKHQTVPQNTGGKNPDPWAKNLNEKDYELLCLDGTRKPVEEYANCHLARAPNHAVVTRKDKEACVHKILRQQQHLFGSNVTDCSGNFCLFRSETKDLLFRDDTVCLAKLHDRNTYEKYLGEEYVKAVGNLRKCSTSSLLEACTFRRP
Description: Solutions of 20 μM holo-transferrin and BBG of concentration ranging between 0 and 100 μM (0-5 molar equivalents) were incubated for 24 h in pH 7.4 50 mM HEPES buffer supplemented with 25 mM carbonate at 37° C., and Fe removal from transferrin was monitored using fluorescence spectroscopy (excitation wavelength: 280 nm).
In another experiment, […] holo-transferrin and was incubated with 100 μM BBG (10 molar equivalents) for 24 h in pH 7.4 50 mM HEPES buffer supplemented with 25 mM carbonate at 37° C., and Fe removal monitored by urea gel electrophoresis assay, FIG. 11B.

[3] = Stability of Fe-BBG against trans-chelation by endogenous chelators (UV-vis); format: physicochemical
Description: In other words, the ligand BBG binds to Fe^3+ with an estimated 230±40 times higher affinity than citrate.

[4] = pH-potentiometric titration, Cu2+ complex; format: physicochemical; settings: pH 7.4
Description: as §1, §2

[5] = Human blood plasma incubation, ultrafiltration and ICP-MS of metals; settings: 0-5 mM BBG, 1 h, 37° C., 10 kDa cutoff
Description: The plasma concentrate and ultrafiltrate were assayed for concentrations of Cu and Zn, as well as Mn, Mg, and Ca by ICP-MS.
To illustrate this point, human blood plasma samples containing between 0-5 mM BBG were incubated for 1 h at 37° C. before separation of the low-molecular weight solution components by ultrafiltration through a 10 kDa molecular weight cutoff filter. The plasma concentrate and ultrafiltrate were assayed for concentrations of Cu and Zn, as well as Mn, Mg, and Ca by ICP-MS, FIG. 14.

transferrin: the iron carrier protein transferrin
log Kcond at pH 7.4 for Fe^3+, first binding site [1]: about 20.7
log Kcond at pH 7.4 for Fe^3+, second binding site [1]: ~19.4

O=C(O)CC[C@@H](C(=O)O)N(Cc1ccccc1O)Cc1ccccc1O [BBG, N,N-bis(2-hydroxybenzyl)-L-glutamic acid]
greater stability of Fe^3+ binding than Zn^2+ [2]: 15 orders of magnitude
Fe removal from transferrin (urea gel electrophoresis) (holo-transferrin; 10 μM holo-transferrin, 100 μM BBG (10 molar equivalents)): No evidence of Fe removal
Fe removal from transferrin (fluorescence spectroscopy) (holo-transferrin; 20 μM holo-transferrin, 0-100 μM BBG): No evidence of Fe removal
Fe^3+ affinity relative to endogenous chelators [3]: substantially higher affinity
Fe^3+ affinity relative to citrate ([3]; estimated from citrate challenge): 230±40 times
greater stability of Fe^3+ binding than Cu^2+ [4]: 9 orders of magnitude
metal ion content remaining in the plasma concentrate [5]: little effect
